From patent US8283365B2, “Indole modulators of the alpha 7 nicotinic acetylcholine receptor” (Proximagen Limited, priority 2008, dated 2012)

Target: T1, human α7 nAChR (Homo sapiens, UniProt P36544)
T1 construct: expressed in transfected cells; host or cells: GH4C1 (rat pituitary) cell line, stably transfected
Test: FLIPR cell-based calcium flux assay for PAM activity at α7 nAChR (nicotine-evoked response)
Details: GH4C1 cell line stably transfected with human α7 nAChR
Procedure: The PAM activity of the compounds of the invention at the α7 nAChR may be determined using the following cell-based calcium flux assay which uses a Fluorimetric Image Plate Reader (FLIPR) (see Schroeder et al.; J. Biomolecular Screening, 1(2), p 75-80, 1996).
GH4C1 cell line stably transfected with human α7 nAChR was suspended in a 384 well plate and incubated at 30° C. for 48 h in a 5% carbon dioxide atmosphere. The growth media was removed and the cells washed three times with a solution of Hanks' balanced salt solution (HBSS), 20 mM HEPES and 2.5 mM probenecid leaving 20 μl washing solution in each well. A loading solution (20 μl) containing HBSS, probenecid, 1-4 μM Fluo4 AM (a calcium indicator dye) and pluronic acid was added and the plate incubated for 45 min at 37° C. under an atmosphere free from carbon dioxide. The cells were washed three times leaving 30 μl in each well. The plate containing the cells and calcium indicator dye were then transferred to the FLIPR. The assay was initiated by collecting baseline datapoints at 10 second intervals followed by addition of the test compound in buffer solution (0.33% DMSO) and diluted to a final concentration of 10 μM and serial dilution of the wells, 1:2 or 1:3, gave a low concentration of <1 nM. Following a further 5-10 mins 10 μl of 50 μM nicotine was added and data collected for 2-3 mins. […]

T1 sequence (P36544 23-502): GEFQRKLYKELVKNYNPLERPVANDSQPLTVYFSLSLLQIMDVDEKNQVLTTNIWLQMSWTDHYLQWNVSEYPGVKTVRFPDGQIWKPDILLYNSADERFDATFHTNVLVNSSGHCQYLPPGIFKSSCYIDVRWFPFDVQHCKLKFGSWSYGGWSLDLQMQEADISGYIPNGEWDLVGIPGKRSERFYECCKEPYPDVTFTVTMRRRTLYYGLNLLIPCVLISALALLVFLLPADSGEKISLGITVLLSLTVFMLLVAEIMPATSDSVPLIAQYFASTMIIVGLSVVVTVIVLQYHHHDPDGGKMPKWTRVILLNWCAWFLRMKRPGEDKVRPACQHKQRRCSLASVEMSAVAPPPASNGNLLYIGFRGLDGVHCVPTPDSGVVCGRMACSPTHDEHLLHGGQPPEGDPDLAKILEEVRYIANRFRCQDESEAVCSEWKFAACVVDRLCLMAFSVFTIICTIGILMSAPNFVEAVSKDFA

EC50 (potentiation of nicotine-evoked calcium flux): < 1 µM | maximum potentiation of the response area relative to nicotine control (relative to nicotine control): approximately 1200%
Compound: O=C(NCc1ccc2[nH]c(C(F)(F)F)cc2c1)c1ccc(C(F)(F)F)nc1 [Compound 1, N-[(2-Trifluoromethyl-1H-indol-5-yl)methyl]-6-(trifluoromethyl)-3-pyridinecarboxamide]
